In patent US20090098529A1 (priority 2006, published 2009):
Like-named read-outs stand apart in the source and are kept apart here.

Legend:
Settings in all cases: mouse, in vivo
PANC-1 tumors [1] = test system: PANC-1 tumors; set-up: species or system nude mice
A549 tumors = test system: A549 tumors; set-up: species or system nude mice
PANC-1 tumors [2] = test system: PANC-1 tumors; set-up: species or system nude mice; remark: listed apart in the source
GI-101A tumors = test system: GI-101A tumors

N.N.[Cl][Pt][Cl] [Cisplatin, cis-diamminedichloroplatinum]
Effect on tumor growth (PANC-1 tumors [1]): unable to arrest tumor growth

Nc1ccn([C@@H]2O[C@H](CO)[C@@H](O)C2(F)F)c(=O)n1 [Gemcitabine]
Effect on tumor growth (A549 tumors): actually increased tumor growth
Effect on tumor growth (PANC-1 tumors [2]): moderately decreased tumor growth

Nc1ccn(C[C@@H](CO)OCP(=O)(O)O)c(=O)n1 [cidofovir]
Interference with tumor therapy by the virus (GI-101A tumors): did not significantly interfere with tumor therapy by the virus
Survival time of GLV-1h74 injected mice (GI-101A tumors): significantly extended the survival time
